From US5376679A, “Bicyclic or tricyclic biocidal compounds” (Shell Internationale Research Maatschappij B.V., priority 1988, dated 1994)
In brackets after ≈: the same amount, converted by molar mass.

Tests used:
[1] = tested on: Pseudocercosporella herpotrichoides; assay: In vitro activity against wheat eyespot (Ph); format: cell-based; design: Ph: activity against wheat eyespot: scale not given here; details: in vitro, 100 ppm in agar, 11 days; activity grade 1 or 2, not defined
In short: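 Compound was dispersed from acetone into half-strength potato dextrose agar at 100 ppm final. Two 5 mm mycelial plugs were placed on each plate, which was incubated 11 days at 20–22 °C in darkness. Diametric growth minus plug width was compared with acetone-only agar.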

Fusarium culmorum = assay: Activity against seedling wheat blight, soil drench (Fs); format: in vivo; design: scale not given here; details: 10 kg/ha, 21 days, activity grade 1 or 2, not defined
In short: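 Wheat seeds (var Waggoner) soaked 6 h at 22° C in 7×10^5 spores/ml, sown in sand; 1 day later soil drench at 10 kg/ha (0.36 g/l in 12% v/v acetone/water). Glasshouse at 25° C; at 21 days, stem-base and upper-root lesions scored visually against control seedlings.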

Staphylococcus aureus = assay: Minimum inhibitory concentration, Staphylococcus aureus (Sa); format: cell-based, Staphylococcus aureus (NCIB 6571); details: 30° C., 24 and 72 hours
In short: (§1)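 Bacteria grown 24 h at 30 °C in tryptone soya broth, diluted 1:100 as inoculum. Compound solution (0.3 ml of 50, 100, 500 or 1000 ppm) mixed with 2.7 ml inoculum in duplicate wells, incubated in the dark at 30 °C; growth scored visually at 24 and 72 h to give MIC.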

Bacillus subtilis = assay: Minimum inhibitory concentration, Bacillus subtilis (Bs); format: cell-based; details: 30° C., 24 and 72 hours
In short: as §1

Escherichia coli = assay: Minimum inhibitory concentration, Escherichia coli (Ec); format: cell-based, Escherichia coli (NCIB 9517); details: 30° C., 24 and 72 hours
In short: as §1

Desulfovibrio sp. = assay: Minimum inhibitory concentration, sulphate-reducing bacteria (Dsp); format: cell-based; details: 30° C., 2, 5 and 10 days
In short: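 Desulfovibrio sp. grown 48 h at 30 °C in modified Postgate's Medium B (pH 7.8) served as inoculum into duplicate compound dilution series (100 ppm) in the same medium. Incubated at 30 °C; growth scored as ferrous sulphide blackening at 2, 5 and 10 days to give MIC.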

Saccharomyces cerevisiae = assay: Minimum inhibitory concentration, yeast (Sc); format: cell-based, Saccharomyces cerevisiae (ATCC 9763); details: 30° C., 24 and 72 hours
In short: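 S. cerevisiae inoculum in yeast malt broth exposed to compound at final 5, 10, 50 and 100 ppm in duplicate wells. Plates kept in the dark at 30° C and scored for growth at 24 and 72 hours; MIC taken as lowest concentration without growth.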

Aspergillus niger = assay: Minimum inhibitory concentration, Aspergillus niger (An); format: cell-based, Aspergillus niger (CMI 17454); details: 30° C., 3, 7 and 10 days
In short: (§2)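 Conidial inocula (5×10^5 conidia/ml) in potato dextrose broth were exposed to compound at final 5, 10, 50 and 100 ppm in duplicate wells. Plates sat in the dark at 30° C and growth was scored at 3, 7 and 10 days; MIC taken as lowest concentration without growth.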

Cladosporium resinae = assay: Minimum inhibitory concentration, Cladosporium resinae (Cr); format: cell-based; details: Amorphotheca resinae, 30° C., 3, 7 and 10 days
In short: as §2

Chaetomium globosum = assay: Minimum inhibitory concentration, Chaetomium globosum (Chg); format: cell-based
In short: as §2

| SMILES | Ph: activity against wheat eyespot [1] | Fs: activity against seedling wheat blight (Fusarium culmorum) | MIC (Staphylococcus aureus) [µg/mL] | MIC (Bacillus subtilis) [µg/mL] | MIC (Escherichia coli) [µg/mL] | MIC (Desulfovibrio sp.) [µg/mL] | MIC (Saccharomyces cerevisiae) [µg/mL] | MIC (Aspergillus niger) [µg/mL] | MIC (Cladosporium resinae) [µg/mL] | MIC (Chaetomium globosum; 30° C., 3, 7 and 10 days) [µg/mL] | MIC (Chaetomium globosum; *only tested at 100 ppm) [µg/mL] |
| --- | --- | --- | --- | --- | --- | --- | --- | --- | --- | --- | --- |
| N#CN=[N+]([O-])c1ccc2oc(=O)ccc2c1 [Example 1] | 2 | 2 | > 100 | 50 (≈ 232 µM) | > 100 | 25 (≈ 116 µM) | 5 to 25 (≈ 23.2 to 116 µM) | 25 (≈ 116 µM) | 25 to 50 (≈ 116 to 232 µM) | 10 (≈ 46.5 µM) | – |
| CC1(C)Cc2cc(Cl)cc([N+]([O-])=NC#N)c2O1 [Example 4] | 2 | 2 | 100 (≈ 397 µM) | 50 (≈ 199 µM) | > 100 | > 100 | > 100 | 100 (≈ 397 µM) | 25 (≈ 99.3 µM) | > 100 | – |
| CC1Oc2c(cc(Cl)cc2[N+]([O-])=NC#N)C1C (stereo not drawn) [Example 5] | 2 | 2 | > 100 | 100 (≈ 397 µM) | > 100 | > 100 | 50 (≈ 199 µM) | 10 (≈ 39.7 µM) | 25 (≈ 99.3 µM) | 5 to 25 (≈ 19.9 to 99.3 µM) | – |
| CC1Cc2cc(Cl)cc([N+]([O-])=NC#N)c2O1 (stereo not drawn) [Example 6] | 2 | 2 | 100 (≈ 421 µM) | 100 (≈ 421 µM) | > 100 | 100 (≈ 421 µM) | 25 (≈ 105 µM) | 25 (≈ 105 µM) | 25 (≈ 105 µM) | 25 (≈ 105 µM) | – |
| CC1Oc2c(cccc2[N+]([O-])=NC#N)C1C (stereo not drawn) [Example 9] | 2 | 2 | > 100 | 50 (≈ 230 µM) | > 100 | 100 (≈ 460 µM) | 50 (≈ 230 µM) | 25 (≈ 115 µM) | 25 (≈ 115 µM) | 50 (≈ 230 µM) | – |
| N#CN=[N+]([O-])c1cc(Cl)cc2c1OC(CCl)C2 (stereo not drawn) [Example 10] | 2 | 2 | > 100 | > 100 | > 100 | 100 (≈ 368 µM) | > 100 | 25 (≈ 91.9 µM) | 25 (≈ 91.9 µM) | – | < 100 |
| N#CN=[N+]([O-])c1cc(Cl)cc2c1OC(CO)C2 (stereo not drawn) [Example 11] | 2 | 2 | 100 (≈ 394 µM) | 25 (≈ 98.6 µM) | 100 (≈ 394 µM) | 100 (≈ 394 µM) | 100 (≈ 394 µM) | 25 (≈ 98.6 µM) | 50 (≈ 197 µM) | 25 (≈ 98.6 µM) | – |
| Cc1cc2cccc([N+]([O-])=NC#N)c2o1 [Example 16] | 1 | 1 | > 100 | > 100 | > 100 | 50 to 100 (≈ 249 to 497 µM) | 100 (≈ 497 µM) | 50 (≈ 249 µM) | > 100 | – | – |
| N#CN=[N+]([O-])c1cccc2c3c(oc12)CCCC3 [Example 17] | 1 | 2 | 100 (≈ 415 µM) | > 100 | > 100 | > 100 | 50 (≈ 207 µM) | < 5 | 25 (≈ 104 µM) | < 100 | – |
| Cc1oc2c([N+]([O-])=NC#N)cccc2c1C [Example 18] | 1 | 2 | 5 (≈ 23.2 µM) | > 100 | > 100 | > 100 | 100 (≈ 465 µM) | 100 (≈ 465 µM) | 100 (≈ 465 µM) | 100 (≈ 465 µM) | – |
| Cc1cc2cc([N+]([O-])=NC#N)ccc2o1 [Example 23] | 1 | 2 | > 100 | 50 (≈ 249 µM) | > 100 | 100 (≈ 497 µM) | 25 (≈ 124 µM) | 25 (≈ 124 µM) | 25 (≈ 124 µM) | – | < 100 |
| N#CN=[N+]([O-])c1cc(Cl)cc2c1OCC=C2 [Example 26] | 1 | 2 | 100 (≈ 424 µM) | 50 (≈ 212 µM) | > 100 | 100 (≈ 424 µM) | > 100 | 25 to 50 (≈ 106 to 212 µM) | 25 to 100 (≈ 106 to 424 µM) | 50 (≈ 212 µM) | – |
| CC1(C)C=Cc2cc(F)cc([N+]([O-])=NC#N)c2O1 [Example 29] | 2 | 2 | > 100 | 100 (≈ 404 µM) | > 100 | > 100 | 50 (≈ 202 µM) | 25 to 100 (≈ 101 to 404 µM) | 50 to 100 (≈ 202 to 404 µM) | 5 to 100 (≈ 20.2 to 404 µM) | – |
